Entries after “also recorded” stand apart in the source; their conditions may differ. Where two headings read alike, the source gives them in different places.
Legend:
[1] = test system: HT1080 cells (fibrosarcoma cells that do not endogenously express SSTR2); experiment: MTT cell growth assay of HT1080 cells transfected with HA-SSTR2 wild-type or C-terminal deletions; type: cell-based; conditions: 5% FBS, with or without 100 nM sandostatin, three days
Description: Three days later, MTT assay was used to determine cell number.
In the following experiments, HA-tagged receptors were used.
(§1) Two days after transient transfection with HA-SSTR2D351 or HA-SSTR2D340, 3000 HT1080 cells were grown in the presence of 5% FBS with or without 100 nM of the somatostatin analogue sandostatin. Three days later, MTT assay was used to determine cell number.

HeyA8 tumors = experiment: Growth of HeyA8 tumors injected with adenovirus expressing HA-SSTR2delta340; type: in vivo; conditions: HeyA8 tumors in nude mice, intratumoral adenovirus
Description: FIG. 12. Constitutively active SSTR2delta340 inhibits the growth of tumor cells. Nude mice were Injected subcutaneously with HeyA8 tumors cells and then each tumor was injected with adenovirus expressing HA-SSTR2delta340 or control inserts (8 tumors per group). Tumor size was measured by calipers. *p<0.05, tumors injected with adv-HA-SSTR2delta340 and given saline vs tumors injected with adv-GFP and given saline; for clarity only the comparison of these two groups is illustrated with *.
as §1

[2] = test system: Mouse ES cell-derived tumors expressing HA-SSTR2 or HA-SSTR2delta314; experiment: Growth of embryonic stem cell-derived teratomas measured by calipers; type: in vivo, nude mice; conditions: tumors derived from wild type ES cells, i.v. twice
Description: Mouse ES cells (these are pluripotent stem cells that can be used to create transgenic mice and like most ES cells result in teratomas when injected in nude mice) were transfected with a plasmid containing HA-SSTR2 or HA-SSTR2delta314. Clones were then selected for expression. The cells were then injected into nude mice subcutaneously and tumor size was measured by calipers. After tumors were present in three locations per mouse in all 8 mice, the animals were injected i.v. with 90-Y labeled octreotate two days and 5 days later.
After tumors were present in three locations per mouse in all 8 mice, the animals were injected i.v. with 90-Y labeled octreotate two days and 5 days later as on the chart. Tumor size was measured by calipers. Unlike many stem cells, embryonic stem cells (ES) more commonly form teratomas. Inhibition of growth of established teratomas was assessed.

[3] = test system: HT1080 cells expressing wild-type or signaling deficient HA-SSTR2 receptors, or vector transfected; experiment: Cell death by trypan blue uptake in stably transfected HT1080 cells; type: cell-based
Description: Stably transfected HT1080 cells were exposed to different amounts of ^90Y-DOTATATE for 1 hour and 72 hours.

[4] = test system: Human ovarian cancer (Hey A8) tumors incorporating HS5 cells; experiment: Growth of Hey A8 tumors co-injected with HS5 cells expressing or not expressing HA-SSTR2D314; type: in vivo, nude mice; conditions: intravenous
Description: FIG. 8: Stem cells expressing the signaling deficient mutant SSTR2D314 incorporate into tumor and can be targeted with a therapeutic for Inhibiting tumor growth.
Stem cells expressing the signaling deficient mutant SSTR2D314 incorporated into tumor and can be targeted with a therapeutic for inhibiting tumor growth (FIG. 8). […] Human ovarian cancer (Hey A8) cells were co-injected subcutaneously in nude mice with HS5 cells expressing or not expressing HA-SSTR2D314. […] Once tumors were established, 90Y-octreotate was delivered intravenously. Tumors were measured by calipers every two days. Tumors incorporating HS5 cells expressing the HA-SSTR2D314 mutant were growth inhibited compared to control (*p<0.05, HeyA8+HS5-SSTR2D314 vs HeyA8+HS5vector). The incorporated stem cells, but not the tumor cells, serve as a target for the therapeutic.

[5] = test system: Human ovarian cancer (Hey A8) tumors to which HS5 cells homed; experiment: Growth of Hey A8 tumors after systemic (intracardiac) injection of HS5 cells expressing or not expressing HA-SSTR2D314; type: in vivo, nude mice; conditions: HeyA8 tumors, intravenous
Description: FIG. 9: Stem cells expressing the signaling deficient mutant SSTR2D314 home to and incorporate into tumor and can be targeted with a therapeutic for inhibiting tumor growth.
Stem cells expressing the signaling deficient mutant SSTR2D314 home to and incorporate into tumor and can be targeted with a therapeutic for inhibiting tumor growth (FIG. 9). […] Human ovarian cancer (Hey A8) cells on one side and vehicle on the other side were injected subcutaneously in nude. Two days later, human mesenchymal stem cells (HS5 cells) expressing or not expressing HA-SSTR2D314 were injected systemically (intracardiac). […] Tumors were seen on the side injected with HeyA8 cells. Once tumors were established, 90Y-octreotate was delivered intravenously. Tumors were measured by calipers every two days. Tumors to which HS5 cells expressing the HA-SSTR2D314 mutant homed and incorporated were growth inhibited compared to control (*p<0.05, HeyA8+HS5-SSTR2D314 vs HeyA8+HS5vector). The incorporated stem cells not the tumor cells serve as a target for the therapeutic.

[6] = test system: untransfected HT1080 cells admixed with HS5 cells; experiment: Bystander cell death, live/dead staining of HS5 mesenchymal stem cells admixed with untransfected HT1080 cells; type: cell-based, human; conditions: HS5 stably expressing wild-type or signaling deficient HA-SSTR2 admixed with untransfected HT1080, 24 hours
Description: FIG. 4: Exposure to 90Y-DOTA-octreotate (DOTATATE) results in bystander cell death of tumor cells. Human mesenchymal stem cells (HS5) stably expressing wild-type or signaling deficient HA-SSTR2 receptors or transfected with vector were admixed with untransfected HT1080 cells and then exposed to 90Y-DOTATATE for 24 hours. Then, live (green)/dead (red) staining was performed.
Mixing mesenchymal stem cells expressing SSTR2 or the signaling deficient mutant delta 314 with untransfected tumor cells results in kill of rosettes of clusters of cells that are not seen if mesenchymal stem cells transfected with vector are used (FIG. 4), consistent with bystander killing. Human mesenchymal stem cells (HS5) stably expressing wild-type or signaling deficient HA-SSTR2 receptors or transfected with vector were admixed with untransfected HT1080 cells and then exposed to 90Y-DOTATATE for 24 hours.

[7] = test system: HT1080 tumors expressing HA-SSTR2 wild-type, HA-D314 or vector
Description: (§2) Stably transfected HT1080 cells were implanted subcutaneously in nude mice (three tumors, HA-wt, HA-D314, vector, per animal). When tumors were palpable, daily injections of the somatostatin analogue sandostatin were initiated and tumors were measured by calipers every two days.
(§3) Stably transfected HT1080 cells were implanted subcutaneously in nude mice (three tumors, HA-wt, HA-D314, vector, per animal).
(§4) Stably transfected HT1080 cells were implanted subcutaneously in nude mice (three tumors, HA-wt, HA-D314, vector, per animal). When tumors were palpable, 90Y-octreotate was given once at a dose of 1 mCi (FIG. 7A) or twice at doses of 2 mCi and 1 mCi (FIG. 7B).
as §2, §3, §4

[8] = stably transfected HT1080 cells

HA-SSTR2D314: signaling deficient human SSTR2 truncated carboxy terminal to amino acid 314 (amino acids 1-314 of SEQ ID NO:6), HA-tagged
cell growth (cell number by MTT assay) [1, 8]: does not inhibit cellular growth upon ligand stimulation

HA-SSTR2D340: constitutively active human SSTR2 mutant, C-terminal amino acids after position 340 deleted (amino acids 1-340 of SEQ ID NO:6), HA-tagged
cell growth (cell number by MTT assay) [1, 8]: inhibits growth even without ligand stimulation
cell growth (cell number by MTT assay) ([1]; transiently transfected HT1080 cells): inhibit growth even without ligand stimulation
tumor growth (size by calipers) (HeyA8 tumors): inhibits the growth of tumor cells in vivo

[^90Y-DOTA]-octreotate [90Y-DOTATATE]
teratoma growth (calipers) [2]: not tumors derived from wild type ES cells
cell death (trypan blue uptake) ([3]; HT1080 cells expressing signaling deficient HA-SSTR2, exposure 1 hour and 72 hours): Dose dependent and time dependent killing was observed
cell death (trypan blue uptake) ([3]; HT1080 cells expressing wild-type HA-SSTR2, exposure 1 hour and 72 hours): Dose dependent and time dependent killing was observed
tumor growth (calipers) ([4]; HeyA8+HS5-SSTR2D314 co-injected subcutaneously): inhibited growth of human tumors incorporating HS5 human mesenchymal stem cells expressing SSTR2D314
tumor growth (calipers) ([4]; HeyA8+control HS5 (vector) co-injected subcutaneously): not control HS5 cells
tumor growth (calipers) ([5]; HS5 expressing HA-SSTR2D314 injected intracardiac): inhibited growth of human tumors to which human mesenchymal stem cells expressing HA-SSTR2D314 homed and incorporated
tumor growth (calipers) ([5]; control HS5 injected intracardiac): not control HS5 cells
bystander cell death (live/dead staining) [6]: Rosettes (clusters) of dead cells were seen
tumor growth (calipers) ([7]; tumors expressing signaling deficient receptor (HA-D314), once 1 mCi or twice 2 mCi and 1 mCi, listed as 90Y-octreotate): inhibited growth of tumors expressing wild-type or signaling deficient receptors; also recorded: decreased in size in a dose dependent manner
tumor growth (calipers) ([7]; tumors expressing wild-type receptor, once 1 mCi or twice 2 mCi and 1 mCi): inhibited growth of tumors expressing wild-type or signaling deficient receptors
tumor growth (calipers) ([7]; tumors from vector transfected cells, once 1 mCi or twice 2 mCi and 1 mCi): not tumors derived from vector transfected cells

octreotide
tumor growth (calipers) ([7]; tumors expressing signaling deficient receptor (HA-D314), daily injections): no decrease in tumor size was seen
tumor growth (calipers) ([7]; tumors expressing wild-type receptor, daily injections): inhibited growth of tumors expressing wild-type receptor
tumor growth (calipers) ([7]; tumors from vector transfected cells, daily injections): not the signaling deficient receptor or tumors derived from vector transfected cells

wild-type SSTR2: HA-tagged wild-type (full length) human somatostatin receptor type 2
cell growth (cell number by MTT assay) [1, 8]: require ligand stimulation to inhibit growth

Reference: US12691179B2, “Somatostatin receptor-based cancer therapy” (Vikas Kundra, priority 2010, dated 2026)
